Consider 4 compounds from US8715927B2, “Inhibition of DNA polymerases to augment chemotherapeutic and antimicrobial agents” (priority 2008, dated 2014).

For one series, the target named is avidin (Gallus gallus, UniProt P02701). As to conditions: non-covalent interaction; cited from earlier work.
Another series has as its system COS-7 cells. Description: Mutagenesis assay: site-specifically modified pMS2 shuttle vector replicated in COS-7 cells. The settings on record: for Deletions / Single base substitutions G to A / Single base substitutions G to C / Single base substitutions G to T: number among colonies scored, pMS2 vector, COS-7 cells; for Frequency of mutations: pMS2 vector replicated in COS-7 cells. It counts as cell-based. As to the method:
Mutagenesis assays were performed using a previously developed pMS2 shuttle vector/COS-7 system (Moriya, Proc. Natl. Acad. Sci. U.S.A. 90:1122-1126, 1993). In its single-stranded form, the pMS2 vector contains a hairpin loop with an internal EcoRV restriction site. Incorporation of control non-damaged oligodeoxynucleotides into this site was accomplished in the presence of a scaffold DNA according to a published method (Kanuri et al., J. Biol. Chem. 277:18257-18265, 2002). To create a single-stranded pMS2 containing site-specific interstrand crosslink, the procedure was modified as described below.
Oligodeoxynucleotides containing a model acrolein-derived site-specific interstrand crosslink (FIG. 1A and FIG. 1B) were designed in such a way that peripheral regions of the longer strands (36-mer) were complementary to the vector sequences immediately adjacent to the EcoRV site. A circular single-stranded pMS2 vector (approximately 15 pmol) was digested with 40 units of EcoRV (New England BioLabs) for 3 hours at 37° C. to generate a linear DNA. 5′-phosphorylated crosslinked inserts (60 pmol) were added to the linear single-stranded pMS2 (15 pmol), and ligated using 60 units of T4 DNA ligase (New England BioLabs) for 48 hours at 4° C. To obtain double-stranded pMS2 vectors, the 36-mer strand of the crosslink or the scaffold oligodeoxynucleotide in control DNA was extended using 5 units of T4 DNA polymerase (New England BioLabs) and 1 mM dNTPs at 37° C. for 1 hour. A newly-synthesized strand was concomitantly sealed using 5 units of T4 DNA ligase (New England BioLabs). The creation of double-stranded pMS2 was verified by PstI (New England BioLabs) digestion.
Transfection of pMS2 vector into COS-7 cells, isolation of progeny DNA, selection of individual clones by E. coli transformation, and differential hybridization analyses were performed as previously described (Moriya, Proc. Natl. Acad. Sci. U.S.A. 90:1122-1126, 1993; Kanuri et al., J. Biol. Chem. 277:18257-18265, 2002).
Previous studies have established that in human cells, crotonaldehyde-mediated N^2-N^2-guanine ICLs were repaired mostly (>94%) in an error-free manner (Liu et al., Biochemistry 45:12898-12905, 2006). Since acrolein-mediated ICLs are structurally similar to crotonaldehyde-mediated ICLs, it is possible that model acrolein-derived N^2-N^2-guanine ICL (FIG. 1A) would not be highly mutagenic when plasmid vectors containing this lesion were replicated in mammalian cells. In order to test this, oligodeoxynucleotides were constructed to contain a site-specific ICL in either CpG or GpC sequence contexts (FIG. 1B) and engineered into a double-stranded DNA shuttle vector (pMS2). The vector was replicated in COS-7 cells, and progeny DNAs were analyzed to determine frequency and types of mutations. In both the CpG and GpC sequence contexts, the mutation frequencies were very low, 3.0% and 3.2%, respectively (Table 2).

A further series has as its target E. coli DNA pol IV (Escherichia coli, UniProt Q47155). As to conditions: −10 primer, 30-minute reactions, 37° C.
In the next series the target is T1, E. coli DNA pol II (Escherichia coli, UniProt P21189).
T1 construct: made in house
The series can be described thus: Primer extension assay by E. coli DNA pol II. It counts as biochemical. As to conditions: pol II 0.3 nM, time course. How it is done:
Control, non-damaged and ICL-containing DNA substrates were used to analyze replication from a −10 primer by pol II (FIG. 7A) and pol IV (FIGS. 7B and 7C). Using the non-damaged primer-template substrates pol II catalyzed a highly processive polymerization to yield full-length primer extension products. […] ICL bypass by pol II was not observed even when reactions were conducted with increased enzyme concentrations (up to a 1000-fold excess relative to DNA substrate).

T1 sequence (P21189 whole entry): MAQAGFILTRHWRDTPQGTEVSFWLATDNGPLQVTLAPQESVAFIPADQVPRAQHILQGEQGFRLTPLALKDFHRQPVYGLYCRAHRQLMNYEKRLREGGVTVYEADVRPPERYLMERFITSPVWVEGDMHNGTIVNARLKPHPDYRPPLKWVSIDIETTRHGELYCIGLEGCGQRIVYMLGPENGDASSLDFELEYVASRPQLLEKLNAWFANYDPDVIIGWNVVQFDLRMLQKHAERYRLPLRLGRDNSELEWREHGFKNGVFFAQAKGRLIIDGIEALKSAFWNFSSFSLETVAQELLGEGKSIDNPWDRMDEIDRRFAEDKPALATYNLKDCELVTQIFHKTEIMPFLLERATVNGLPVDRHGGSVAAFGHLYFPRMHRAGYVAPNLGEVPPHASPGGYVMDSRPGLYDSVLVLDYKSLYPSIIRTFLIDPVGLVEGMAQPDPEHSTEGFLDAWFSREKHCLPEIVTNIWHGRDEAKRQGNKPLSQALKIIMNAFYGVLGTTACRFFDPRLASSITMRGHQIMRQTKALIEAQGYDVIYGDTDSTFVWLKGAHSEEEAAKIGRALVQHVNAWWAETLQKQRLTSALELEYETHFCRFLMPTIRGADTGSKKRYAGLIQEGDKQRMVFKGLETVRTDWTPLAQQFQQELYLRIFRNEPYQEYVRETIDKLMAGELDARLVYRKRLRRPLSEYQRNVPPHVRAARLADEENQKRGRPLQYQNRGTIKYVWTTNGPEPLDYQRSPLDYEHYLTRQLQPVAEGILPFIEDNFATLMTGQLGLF
E. coli DNA pol IV, sequence (Q47155 whole entry): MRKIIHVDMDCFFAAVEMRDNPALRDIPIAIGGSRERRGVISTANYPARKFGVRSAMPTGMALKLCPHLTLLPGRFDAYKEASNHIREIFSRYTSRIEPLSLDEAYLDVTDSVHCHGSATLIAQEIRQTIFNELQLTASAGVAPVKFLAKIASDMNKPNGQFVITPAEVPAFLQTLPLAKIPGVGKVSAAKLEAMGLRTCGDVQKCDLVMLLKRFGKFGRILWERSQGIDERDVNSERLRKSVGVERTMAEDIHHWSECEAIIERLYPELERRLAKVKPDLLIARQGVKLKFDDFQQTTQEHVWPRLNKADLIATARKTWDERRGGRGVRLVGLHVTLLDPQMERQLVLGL
avidin, sequence (P02701 25-152, species assumed): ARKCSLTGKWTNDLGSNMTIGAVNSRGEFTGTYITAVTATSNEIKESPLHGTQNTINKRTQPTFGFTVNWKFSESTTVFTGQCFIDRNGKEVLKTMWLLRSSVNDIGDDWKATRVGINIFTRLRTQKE
Experimental for E. coli DNA pol IV: The primer extension assays were conducted in a 10 μl reaction volume containing pol II or pol IV, 5 nM primer-template, 5 mM MgCl2, 100 μM dNTPs, 25 mM Tris-HCl (pH 7.5), 25 mM DTT, 0.5 mg/ml BSA and 10% glycerol. Reactions were carried out at 37° C. for 30 minutes followed by termination of the reaction with a solution containing 95% formamide, 10 mM EDTA and 0.03% (w/v) xylene cyanol and 0.03% (w/v) bromophenol blue. DNA replication products were separated through a 15% denaturing polyacrylamide gel at 2000 V and later analyzed on a Phosphor Imager (GE Healthcare).

`O=C(O)CCCC[C@@H]1SC[C@@H]2NC(=O)N[C@@H]21` [biotin]: at avidin, the “Ka of avidin-biotin complex” value is 10^15 M^−1.

Turning to “GpC ICL: SEQ ID NO: 3 and 4 joined by G-(CH2)3-G; model acrolein-derived N2-N2-guanine ICL in GpC context (chain 1 GCTGAGCGATCC; chain 2 CCTGCAAGCGATGGATCGCTCAGCATCGCTGGTACC; listed as DNA, chemistry not fully specified)”, in the series on COS-7 cells, the Deletions worked out at 5, the “Single base substitutions G to A” value was determined as 4, the “Single base substitutions G to C” value turned out to be 1 and the “Single base substitutions G to T” value amounted to 1. In the series on COS-7 cells, this compound had a Frequency of mutations of 3.2%.

With “CpG ICL: SEQ ID NO: 1 and 2 joined by G-(CH2)3-G; model acrolein-derived N2-N2-guanine ICL in CpG context (chain 1 GCTAGCGAGTCC; chain 2 CCTGCAAGCGATGGACTCGCTAGCATCGCTGGTACC; listed as DNA, chemistry not fully specified)”, in the series on COS-7 cells, the Deletions is 0, the “Single base substitutions G to A” value was determined as 0, the “Single base substitutions G to C” value worked out at 0 and the “Single base substitutions G to T” value is reported as 2. The same compound returned a Frequency of mutations in the series on COS-7 cells of 3.0%.

As to “ICL1: crosslinked oligodeoxynucleotide, SEQ ID NO: 5 and 6 joined by G-(CH2)3-G; models DNA product of dual incision around the ICL (chain 1 GATGCTANCYTGTC; chain 2 AGCGATAGACACYATAGCATCGCTGGTACCGACTCG; crosslinked oligodeoxynucleotide, G-(CH2)3-G interstrand crosslink, further chemistry not given here)”, the “replication by increasing concentrations of pol IV” value with E. coli DNA pol IV is listed as “very poor strand displacement synthesis”. In the series with E. coli DNA pol II, the “replication from −10 primer by pol II” value was “unable to carry out effective strand-displacement synthesis”.
